Test results reported in patent US20240335442A1 (Eurofarma Laboratórios S.A., priority 2021, published 2024).

Tests used:
[1] = target: human sodium channel Nav 1.7 (Homo sapiens (Human), UniProt Q15858); test: Automated whole-cell voltage-clamp (ScreenPatch 384P), Nav 1.7 sodium current, Protocol 2; format: cell-based; settings: read-out: Nav1.7 IC50
How it was run: (§1)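 Peak TP1A sodium current block, scaled between DMSO vehicle and positive control, was fitted with a Hill equation to give IC50 at eight compound concentrations (≥5 min, room temperature) in stable CHO lines. Protocol 2 (0.05 Hz) used an 8 s −40 mV inactivating prepulse from −100 mV; Protocol 1 (0.1 Hz) held at −90 mV; test steps 10 mV for Nav1.8, 0 mV for Nav1.7.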

[2] = target: human sodium channel Nav 1.8 (Homo sapiens (Human), UniProt Q9Y5Y9); test: Automated whole-cell voltage-clamp (ScreenPatch 384P), Nav 1.8 sodium current, Protocol 2; format: cell-based; settings: read-out: Nav1.8 IC50
How it was run: as §1

human sodium channel Nav 1.7, sequence (Q15858 whole entry): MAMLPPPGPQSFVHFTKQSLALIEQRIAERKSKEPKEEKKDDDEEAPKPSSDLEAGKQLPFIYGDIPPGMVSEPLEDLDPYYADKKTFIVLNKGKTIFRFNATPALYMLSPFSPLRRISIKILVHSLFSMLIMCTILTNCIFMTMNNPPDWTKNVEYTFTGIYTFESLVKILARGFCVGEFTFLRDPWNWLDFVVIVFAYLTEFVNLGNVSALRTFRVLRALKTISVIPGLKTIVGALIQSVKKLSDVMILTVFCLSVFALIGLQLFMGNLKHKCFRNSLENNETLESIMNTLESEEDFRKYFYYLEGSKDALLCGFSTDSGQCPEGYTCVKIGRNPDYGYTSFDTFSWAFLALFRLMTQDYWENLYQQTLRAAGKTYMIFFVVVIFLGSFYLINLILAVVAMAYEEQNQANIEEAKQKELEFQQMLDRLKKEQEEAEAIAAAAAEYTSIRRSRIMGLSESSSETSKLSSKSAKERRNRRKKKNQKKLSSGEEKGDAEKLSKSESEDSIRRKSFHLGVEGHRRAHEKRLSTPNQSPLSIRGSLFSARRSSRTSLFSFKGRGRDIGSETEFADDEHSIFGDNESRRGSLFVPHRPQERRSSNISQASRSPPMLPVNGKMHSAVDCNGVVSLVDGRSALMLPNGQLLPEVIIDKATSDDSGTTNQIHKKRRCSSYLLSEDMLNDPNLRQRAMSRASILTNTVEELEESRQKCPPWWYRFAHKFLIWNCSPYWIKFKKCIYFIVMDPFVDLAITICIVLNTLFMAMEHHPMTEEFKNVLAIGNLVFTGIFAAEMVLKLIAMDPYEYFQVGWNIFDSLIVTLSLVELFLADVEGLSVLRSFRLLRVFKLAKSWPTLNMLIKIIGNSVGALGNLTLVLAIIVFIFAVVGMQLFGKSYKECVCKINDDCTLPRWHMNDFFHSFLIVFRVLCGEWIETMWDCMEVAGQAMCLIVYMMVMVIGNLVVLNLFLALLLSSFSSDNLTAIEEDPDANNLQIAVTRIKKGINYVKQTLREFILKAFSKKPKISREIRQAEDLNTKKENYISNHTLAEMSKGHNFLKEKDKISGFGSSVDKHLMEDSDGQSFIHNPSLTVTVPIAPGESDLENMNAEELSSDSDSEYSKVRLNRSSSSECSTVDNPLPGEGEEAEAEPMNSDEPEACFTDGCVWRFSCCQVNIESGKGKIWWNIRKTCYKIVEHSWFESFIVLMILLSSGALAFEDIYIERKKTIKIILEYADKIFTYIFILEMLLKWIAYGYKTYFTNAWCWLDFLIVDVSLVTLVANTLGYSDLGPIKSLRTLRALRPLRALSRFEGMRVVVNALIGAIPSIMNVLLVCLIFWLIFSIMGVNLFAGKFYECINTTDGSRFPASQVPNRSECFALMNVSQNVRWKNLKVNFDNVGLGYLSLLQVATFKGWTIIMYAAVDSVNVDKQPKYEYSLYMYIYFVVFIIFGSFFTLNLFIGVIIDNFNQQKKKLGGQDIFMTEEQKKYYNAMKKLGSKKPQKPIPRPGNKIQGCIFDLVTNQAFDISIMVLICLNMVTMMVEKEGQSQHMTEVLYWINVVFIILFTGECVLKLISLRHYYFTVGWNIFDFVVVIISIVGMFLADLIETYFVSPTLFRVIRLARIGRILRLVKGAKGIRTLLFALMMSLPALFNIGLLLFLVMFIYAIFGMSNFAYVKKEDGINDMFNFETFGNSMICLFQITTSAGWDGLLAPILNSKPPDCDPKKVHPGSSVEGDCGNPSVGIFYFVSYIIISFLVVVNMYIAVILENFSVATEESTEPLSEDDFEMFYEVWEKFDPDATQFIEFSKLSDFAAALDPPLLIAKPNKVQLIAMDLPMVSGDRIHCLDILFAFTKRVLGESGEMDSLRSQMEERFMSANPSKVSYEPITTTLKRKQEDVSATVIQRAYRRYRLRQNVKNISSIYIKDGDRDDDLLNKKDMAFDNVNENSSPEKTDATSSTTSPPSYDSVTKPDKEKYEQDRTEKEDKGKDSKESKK
human sodium channel Nav 1.8, sequence (Q9Y5Y9 whole entry): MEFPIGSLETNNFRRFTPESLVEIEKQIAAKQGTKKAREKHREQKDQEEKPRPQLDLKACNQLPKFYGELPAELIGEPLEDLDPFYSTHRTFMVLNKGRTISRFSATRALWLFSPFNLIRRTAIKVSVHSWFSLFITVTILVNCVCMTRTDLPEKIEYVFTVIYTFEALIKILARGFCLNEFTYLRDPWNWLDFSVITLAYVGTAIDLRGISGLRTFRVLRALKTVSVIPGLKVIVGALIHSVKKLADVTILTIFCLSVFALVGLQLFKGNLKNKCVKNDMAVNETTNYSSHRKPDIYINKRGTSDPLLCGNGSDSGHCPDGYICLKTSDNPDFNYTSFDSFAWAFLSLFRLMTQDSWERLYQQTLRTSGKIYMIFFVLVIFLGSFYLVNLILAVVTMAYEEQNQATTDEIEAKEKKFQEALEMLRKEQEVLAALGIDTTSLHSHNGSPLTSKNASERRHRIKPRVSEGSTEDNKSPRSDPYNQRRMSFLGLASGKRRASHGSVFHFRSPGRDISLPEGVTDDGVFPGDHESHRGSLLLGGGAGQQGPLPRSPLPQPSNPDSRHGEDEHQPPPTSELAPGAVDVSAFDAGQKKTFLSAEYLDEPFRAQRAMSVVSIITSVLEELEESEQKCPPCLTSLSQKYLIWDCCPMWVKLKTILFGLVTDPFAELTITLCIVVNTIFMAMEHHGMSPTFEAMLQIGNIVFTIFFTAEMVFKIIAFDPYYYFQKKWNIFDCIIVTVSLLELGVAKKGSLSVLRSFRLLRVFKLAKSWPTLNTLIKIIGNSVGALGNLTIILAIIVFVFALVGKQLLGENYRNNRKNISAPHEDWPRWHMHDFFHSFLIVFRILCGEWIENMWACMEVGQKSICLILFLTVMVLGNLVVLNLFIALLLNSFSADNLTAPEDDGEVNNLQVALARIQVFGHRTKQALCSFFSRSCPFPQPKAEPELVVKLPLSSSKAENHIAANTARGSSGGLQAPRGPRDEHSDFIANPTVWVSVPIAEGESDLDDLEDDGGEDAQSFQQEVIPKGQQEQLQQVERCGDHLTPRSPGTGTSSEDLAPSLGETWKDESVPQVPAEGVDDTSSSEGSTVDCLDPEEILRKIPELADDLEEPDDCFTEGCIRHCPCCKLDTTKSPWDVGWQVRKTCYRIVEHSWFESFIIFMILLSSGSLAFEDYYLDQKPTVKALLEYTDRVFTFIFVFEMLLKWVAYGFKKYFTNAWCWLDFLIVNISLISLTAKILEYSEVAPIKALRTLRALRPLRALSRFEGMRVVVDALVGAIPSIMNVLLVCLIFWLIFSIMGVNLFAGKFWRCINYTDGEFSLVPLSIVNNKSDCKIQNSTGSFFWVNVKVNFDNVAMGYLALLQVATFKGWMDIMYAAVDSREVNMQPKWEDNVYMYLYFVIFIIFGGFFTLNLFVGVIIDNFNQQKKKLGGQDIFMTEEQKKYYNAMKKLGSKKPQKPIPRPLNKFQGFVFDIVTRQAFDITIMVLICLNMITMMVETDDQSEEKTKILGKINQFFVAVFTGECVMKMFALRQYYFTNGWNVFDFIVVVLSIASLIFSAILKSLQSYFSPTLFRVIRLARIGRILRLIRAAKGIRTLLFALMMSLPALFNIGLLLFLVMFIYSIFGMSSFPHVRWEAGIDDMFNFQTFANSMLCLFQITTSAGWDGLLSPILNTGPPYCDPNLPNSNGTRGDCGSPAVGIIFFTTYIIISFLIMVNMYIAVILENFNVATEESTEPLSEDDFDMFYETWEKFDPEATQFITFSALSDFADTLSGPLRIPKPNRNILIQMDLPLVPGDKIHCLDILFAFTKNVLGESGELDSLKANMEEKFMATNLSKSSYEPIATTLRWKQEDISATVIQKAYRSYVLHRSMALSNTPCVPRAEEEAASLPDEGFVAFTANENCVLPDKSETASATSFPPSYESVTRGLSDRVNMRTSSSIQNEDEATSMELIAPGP

Row | IC50 [1] [nM] | IC50 [2] [nM] | SMILES
1 | 1740 | 166 | CC1=C(/C=N/NC(=O)c2cncc(-c3ccc(OC(C)C)cc3)n2)CCCC1 [Compound 199, (E)-6-(4-isopropoxyphenyl)-N′-((2-methylcyclohept-1-en-1-yl)methylene)pyrazine-2-carbohydrzide]
2 | 666 | 332 | COc1cc(/C=N/NC(=O)c2cncc(-c3ccc(CC(C)C)cc3)n2)cc(OC)c1 [Compound 116, (E)-N′-(3,5-dimethoxybenzylidene)-6-(4-isobutylphenyl)pyrazine-2-carbohydrazide]
3 | > 10000 | > 1000 | COc1ccc(-c2cncc(C(=O)N/N=C/c3cc[nH]c(=O)c3)n2)cc1 [Compound 34, (E)-6-(4-methoxyphenyl)-N′-((2-oxo-1,2-dihydropyridin-4-yl)methylene)pyrazine-2-carbohydrazide]
4 | 2650 | 129 | COc1ccc(-c2cncc(C(=O)N/N=C/C3=C(C)CCCCC3)n2)cc1 [Compound 200]
5 | > 300 | > 300 | CCOc1ccc(-c2cncc(C(=O)N/N=C/c3cc(OC)cc4ocnc34)n2)cc1 [Compound 6, (E)-6-(4-ethoxyphenyl)-N′-((6-methoxybenzo[d]oxazol-4-yl)methylene)pyrazine-2-carbohydrazide]
6 | > 10000 | > 1000 | CCc1cnc(C(=O)N/N=C/c2cc(OC)cc(OC)c2)cn1 [Compound 167, (E)-N′-(3,5-dimethoxybenzylidene)-5-ethylpyrazine-2-carbohydrazide]
7 | > 10000 | > 1000 | COc1cc(/C=N/NC(=O)c2nccnc2C)cc(OC)c1 [Compound 139, (E)-N′-(3,5-dimethoxybenzylidene)-3-methylpyrazine-2-carbohydrazide]
8 | > 10000 | > 1000 | COc1cc(/C=N/NC(=O)c2cncc(N3CCCCC3)n2)cc(OC)c1 [Compound 127, (E)-N′-(3,5-dimethoxybenzylidene)-6-(piperidin-1-yl)pyrazine-2-carbohydrazide]
9 | 3290 | 94.5 | COc1ccc(-c2cncc(C(=O)N/N=C/c3cccc(OC(C)C)c3)n2)cc1 [Compound 41, (E)-N′-(3-isopropoxybenzylidene)-6-(4-methoxyphenyl)pyrazine-2-carbohydrazide]
10 | 1310 | 158 | COc1ccc(-c2cncc(C(=O)N/N=C/c3ccccc3C(F)(F)F)n2)cc1 [Compound 49, (E)-6-(4-methoxyphenyl)-N′-(2-(trifluoromethyl)benzylidene)pyrazine-2-carbohydrazide]
11 | > 10000 | > 1000 | COc1cc(/C=N/NC(=O)c2cncc(N3CCC(F)(F)CC3)n2)cc(OC)c1 [Compound 180, (E)-6-(4,4-difluoropiperidin-1-yl)-N′-(3,5-dimethoxybenzylidene)pyrazine-2-carbohyrazide]
12 | > 10000 | 913 | CCc1cncc(C(=O)N/N=C/c2cc(OC)cc(OC)c2)n1 [Compound 133, (E)-N′-(3,5-dimethoxybenzylidene)-6-ethylpyrazine-2-carbohydrazide]
13 | 70.4 | 42.6 | COc1cc(/C=N/NC(=O)c2cncc(-c3ccc(OC4CC4)cc3)n2)cc(OC)c1 [Compound 88, (E)-6-(4-cyclopropoxyphenyl)-N′-(3,5-dimethoxybenzylidene)pyrazine-2-carbohydrazide]
14 | 416 | 79.9 | CCSc1ccc(-c2cncc(C(=O)N/N=C/c3cc(OC)cc(OC)c3)n2)cc1 [Compound 118, (E)-N′-(3,5-dimethoxybenzylidene)-6-(4-(ethylthio)phenyl)pyrazine-2-carbohydrazide]
15 | > 10000 | 887 | COc1cc(/C=N/NC(=O)c2cncc(-c3ccc(C)cc3)n2)cc(OC)c1 [Compound 96, (E)-N′-(3,5-dimethoxybenzylidene)-6-(p-tolyl)pyrazine-2-carbohydrazide]
16 | > 10000 | > 1000 | CCOc1ccc(-c2nc(C(=O)N/N=C/c3cc(OC)cc(OC)c3)cnc2N)cc1 [Compound 206, (E)-5-amino-N′-(3,5-dimethoxybenzylidene)-6-(4-ethoxyphenyl)pyrazine-2-carbohydrazide]
17 | 2470 | 189 | CCOc1ccc(-c2nc(C(=O)N/N=C/c3cc(OC)cc(OC)c3)cnc2Cl)cc1 [Compound 209, (E)-5-chloro-N′-(3,5-dimethoxybenzylidene)-6-(4-ethoxyphenyl)pyrazine-2-carbohydrazide]
18 | > 10000 | > 1000 | COc1cc(/C=N/NC(=O)c2cncc(-c3ccc(F)cc3)n2)cc(OC)c1 [Compound 92, (E)-N′-(3,5-dimethoxybenzylidene)-6-(4-fluorophenyl)pyrazine-2-carbohydrazide]
19 | > 10000 | 629 | COc1ccc(-c2cncc(C(=O)N/N=C/C3CCCCC3)n2)cc1 [Compound 173, (E)-N′-(cyclohexylmethylene)-6-(4-methoxyphenyl)pyrazine-2-carbohydrazide]

Row | IC50 [1] [nM] | IC50 [2] [nM] | SMILES
20 | 2350 | 966 | COc1cc(/C=N/NC(=O)c2cncc(-c3ccc(OC)cc3OC(F)(F)F)n2)cc(OC)c1 [Compound 112]
21 | 1420 | 82 | COc1ccc(-c2cncc(C(=O)N/N=C/c3ccccc3Cl)n2)cc1 [Compound 47, (E)-N′-(2-chlorobenzylidene)-6-(4-methoxyphenyl)pyrazine-2-carbohydrazide]
22 | 110 | 361 | CC(C)Oc1ccc(-c2cncc(C(=O)N/N=C/C3CCCCC3)n2)cc1 [Compound 175, (E)-N′-(cyclohexylmethylene)-6-(4-isopropoxyphenyl)pyrazine-2-carbohydrazide]
23 | > 10000 | > 1000 | CCOc1cc(C)c(-c2cncc(C(=O)N/N=C/c3cccc(OC)c3)n2)c(C)c1 [Compound 213, (E)-6-(4-ethoxy-2,6-diemthylphenyl)-N′-(3-methoxybenzylidene)pyrazine-2-carbohydrazide]
24 | > 10000 | 394 | COc1cc(/C=N/NC(=O)c2cncc(-c3ccccc3)n2)cc(OC)c1 [Compound 97, (E)-N′-(3,5-dimethoxybenzylidene)-6-phenylpyrazine-2-carbohydrazide]
25 | 2770 | > 1000 | COc1ccc(-c2cncc(C(=O)N/N=C/c3ccc(OC)c(OC)c3OC)n2)cc1 [Compound 82, (E)-6-(4-methoxyphenyl)-N′-(2,3,4-trimethoxybenzylidene)pyrazine-2-carbohydrazide]
26 | > 10000 | > 1000 | COc1cc(/C=N/NC(=O)c2cncc(-c3ccc(OC)cc3OCCN(C)C)n2)cc(OC)c1 [Compound 160, (E)-N′-(3,5-dimethoxybenzylidene)-6-(2-(2-(dimethylamino)ethoxy)-4-methoxyphenol)pyrazine-2-carbohydrazide]
27 | 1390 | > 1000 | CCOc1ccc(-c2cncc(C(=O)N/N=C/c3cccc(OC)c3)n2)c(OC(C)C)c1 [Compound 154, (E)-6-(4-ethoxy-2-isopropoxyphenyl)-N′-(3-methoxybenzylidene)pyrazine-2-carbohydrazide]
28 | 3900 | 621 | COc1ccc(-c2cncc(C(=O)N/N=C/c3ccccc3OC)n2)cc1 [Compound 42, (E)-N′-(2-methoxybenzylidene)-6-(4-methoxyphenyl)pyrazine-2-carbohydrazide]
29 | 575 | 93.5 | CCOc1ccc(-c2cncc(C(=O)N/N=C/c3cccc(OC)c3Cl)n2)cc1 [Compound 19, (E)-N′-(2-chloro-3-methoxybenzylidene)-6-(4-ethoxyphenyl)pyrazine-2-carbohydrazide]
30 | 49.2 | 803 | COc1cc(/C=N/NC(=O)c2cncc(-c3ccc(OC)cc3C(F)(F)F)n2)cc(OC)c1 [Compound 123, (E)-N′-(3,5-dimethoxybenzylidene)-6-(4-methoxy-2-(trifluromethoxy)phenyl)pyrazine-2-carbohydrazide]
31 | 3190 | 358 | COc1ccc(-c2cncc(C(=O)N/N=C/c3ccccc3)n2)cc1 [Compound 178, (E)-N′-benzylidene-6-(4-methoxyphenyl)pyrazine-2-carbohydrazide]
32 | > 10000 | > 1000 | COc1ccc(-c2nccnc2C(=O)N/N=C/c2cc(OC)cc(OC)c2)cc1 [Compound 90, (E)-N′-(3,5-dimethoxybenzylidene)-3-(4-methoxyphenyl)pyrazine-2-carbohydrazide]
33 | > 10000 | > 1000 | COc1ccc(-c2cncc(C(=O)N/N=C/c3ccc(C(F)(F)F)cc3)n2)cc1 [Compound 63, (E)-6-(4-methoxyphenyl)-N′-(4-(trifluoromethyl)benzylidene)pyrazine-2-carbohydrazide]
34 | > 10000 | > 1000 | COc1cc(/C=N/NC(=O)c2cnc(Cl)cn2)cc(OC)c1 [Compound 164, (E)-5-chloro-N′-(3,5-dimethoxybenzylidene)pyrazine-2-carbohydrazide]
35 | > 10000 | > 1000 | COc1ccc(-c2cncc(C(=O)N(C)/N=C/c3cc(OC)cc(OC)c3)n2)cc1 [Compound 168, (E)-N′-(3,5-dimethoxybenzylidene)-6-(4-methoxyphenyl)-N-methylpyrazine-2-carbohydrazide]
36 | 228 | 27.2 | CCOc1ccc(-c2cncc(C(=O)N/N=C/c3cccc(OC)c3)n2)cc1 [Compound 22, (E)-6-(4-ethoxyphenyl)-N′-(3-methoxybenzylidene)pyrazine-2-carbohydrazide]
37 | 322 | 24.9 | CCOc1ccc(-c2cncc(C(=O)N/N=C/c3ccccc3OC)n2)cc1 [Compound 26, (E)-6-(4-ethoxyphenyl)-N′-(2-methoxybenzylidene)pyrazine-2-carbohydrazide]
